ChEMBL document CHEMBL4364275, “Jietacins, azoxy natural products, as novel NF-κB inhibitors: Discovery, synthesis, biological activity, and mode of action” (Eur J Med Chem, 2019)
Converted amounts (≈) assume the structure as drawn. The source made the active and inactive calls. The calls are words filed in the database; no cut-off is given here.

Assays:
ATN-1 = assay: Antiproliferative activity against human ATN1 cells assessed as reduction in cell viability measured after 24 hrs by MTT assay; assay type: functional; settings: ATN-1, 24 h, read-out: ED50 (the source's name)
K562 [1] = assay: Antiproliferative activity against human K562 cells assessed as reduction in cell viability at 10 ug/ml measured after 24 hrs by MTT assay relative to control; assay type: functional
Homo sapiens [2] = organism: Homo sapiens; assay: Inhibition of NF-kappaB localization in nucleus of human L540 cells at 0.7 ug/ml measured after 5 to 24 hrs by DAPI staining immunofluorescence microscopy
Homo sapiens [3] = organism: Homo sapiens; assay: Inhibition of NF-kappaB localization in nucleus of human L540 cells at 5 ug/ml measured after 5 hrs by DAPI staining immunofluorescence microscopy
Homo sapiens [4] = organism: Homo sapiens; assay: Inhibition of NF-kappaB localization in nucleus of human L540 cells at 1.5 ug/ml measured after 5 hrs by DAPI staining immunofluorescence microscopy
Homo sapiens [5] = organism: Homo sapiens; assay: Inhibition of NF-kappaB localization in nucleus of human L540 cells at 6 ug/ml measured after 5 hrs by DAPI staining immunofluorescence microscopy
Homo sapiens [6] = organism: Homo sapiens; assay: Inhibition of NF-kappaB localization in nucleus of human L540 cells at 10 ug/ml measured after 5 to 24 hrs by DAPI staining immunofluorescence microscopy
Homo sapiens [7] = organism: Homo sapiens; assay: Inhibition of TNF alpha stimulated NF-kappaB in human FL cells transfected with kappaB luciferase at 5 to 10 ug/ml incubated for 4 hrs followed by TNF alpha stimulation measured after 3 hrs by dual luciferase reporter gene assay; assay type: cell-based
Homo sapiens [8] = organism: Homo sapiens; assay: Inhibition of NF-kappaB localization in nucleus of human L540 cells at 3 ug/ml measured after 5 hrs by DAPI staining immunofluorescence microscopy
Homo sapiens [9] = organism: Homo sapiens; assay: Inhibition of NF-kappaB localization in nucleus of human L540 cells at 0.2 ug/ml measured after 5 hrs by DAPI staining immunofluorescence microscopy
Homo sapiens [10] = organism: Homo sapiens; assay: Inhibition of TNF alpha stimulated NF-kappaB in human FL cells transfected with kappaB luciferase incubated for 2 hrs followed by TNF alpha stimulation measured after 3 hrs by dual luciferase reporter gene assay; assay type: cell-based
Homo sapiens [11] = organism: Homo sapiens; assay: Antiproliferative activity against human KMM1 cells assessed as reduction in cell viability at 25 to 100 ng/ml measured after 24 to 48 hrs by MTT assay; assay type: functional, cell-based
U-266 = assay: Antiproliferative activity against human U266 cells assessed as reduction in cell viability at 25 to 100 ng/ml measured after 24 to 48 hrs by MTT assay; assay type: functional, cell-based
KM-H2 = assay: Antiproliferative activity against human KM-H2 cells assessed as reduction in cell viability at 25 to 100 ng/ml measured after 24 to 48 hrs by MTT assay; assay type: functional, cell-based
L-540 = assay: Antiproliferative activity against human L540 cells assessed as reduction in cell viability at 25 to 100 ng/ml measured after 24 to 48 hrs by MTT assay; assay type: functional, cell-based
HeLa [12] = assay: Antiproliferative activity against human HeLa cells assessed as reduction in cell viability at 25 to 100 ng/ml measured after 24 to 48 hrs by MTT assay; assay type: functional, cell-based
K562 [13] = assay: Antiproliferative activity against human K562 cells assessed as reduction in cell viability at 25 to 100 ng/ml measured after 24 to 48 hrs by MTT assay; assay type: functional, cell-based
Homo sapiens [14] = organism: Homo sapiens; assay: Antiproliferative activity against human KK1 cells assessed as reduction in cell viability at 25 to 100 ng/ml measured after 24 to 48 hrs by MTT assay; assay type: functional, cell-based
Homo sapiens [15] = organism: Homo sapiens; assay: Antiproliferative activity against human KOB cells assessed as reduction in cell viability at 25 to 100 ng/ml measured after 24 to 48 hrs by MTT assay; assay type: functional, cell-based
HeLa [16] = assay: Inhibition of TNF alpha stimulated NF-kappaB localization in nucleus of human HeLa cells transfected with GFP-fused RelA C38S and IKBalpha expressing plasmid incubated for 2 hrs followed by TNF alpha stimulation by immunofluorescence microscopy; assay type: cell-based
HeLa [17] = assay: Inhibition of TNF alpha stimulated NF-kappaB localization in nucleus of human HeLa cells transfected with GFP-fused RelA and IKBalpha expressing plasmid incubated for 2 hrs followed by TNF alpha stimulation by immunofluorescence microscopy; assay type: cell-based
HeLa [18] = assay: Inhibition of TNF alpha stimulated NF-kappaB in human HeLa cells transfected with GFP-fused RelA mutant and IKBalpha expressing plasmid incubated for 2 hrs followed by TNF alpha stimulation by immunofluorescence microscopy; assay type: cell-based
HeLa [19] = assay: Inhibition of TNF alpha stimulated NF-kappaB in human HeLa cells transfected with GFP-fused p50 mutant and IKBalpha expressing plasmid incubated for 2 hrs followed by TNF alpha stimulation by immunofluorescence microscopy; assay type: cell-based
[20] = molecular target: Transcription factor p65 (Homo sapiens) (UniProt Q04206); assay: Inhibition of NF-kappaB RelA association with importin alpha in human KM-H2 cells at 0.2 ug/ml after 6 hrs by immunoprecipitation method; assay type: cell-based
[21] = Acute toxicity in rat; settings: in vivo
[22] = molecular target: T1, Importin subunit alpha-4 (Homo sapiens) (UniProt O00505); assay: Inhibition of importin alpha 3 in human KM-H2 cells at 0.2 ug/ml after 6 hrs by Western blot analysis (reference value: 1); assay type: cell-based
T1 sequence (whole entry): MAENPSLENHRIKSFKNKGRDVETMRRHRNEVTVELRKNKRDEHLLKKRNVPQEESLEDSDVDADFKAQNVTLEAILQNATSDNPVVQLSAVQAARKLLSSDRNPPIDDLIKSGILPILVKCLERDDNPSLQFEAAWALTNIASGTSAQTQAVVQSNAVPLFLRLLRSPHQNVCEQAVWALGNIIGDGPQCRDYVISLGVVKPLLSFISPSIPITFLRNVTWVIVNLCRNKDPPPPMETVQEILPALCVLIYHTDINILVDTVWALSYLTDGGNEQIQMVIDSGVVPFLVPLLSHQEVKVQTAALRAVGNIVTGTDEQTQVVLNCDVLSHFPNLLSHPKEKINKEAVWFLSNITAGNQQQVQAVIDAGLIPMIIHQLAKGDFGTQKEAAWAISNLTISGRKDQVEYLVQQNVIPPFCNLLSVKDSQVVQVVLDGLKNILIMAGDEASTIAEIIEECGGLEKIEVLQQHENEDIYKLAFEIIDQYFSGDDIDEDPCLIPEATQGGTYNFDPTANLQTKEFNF

Transcription factor p65 (Homo sapiens), sequence (Q04206 whole entry): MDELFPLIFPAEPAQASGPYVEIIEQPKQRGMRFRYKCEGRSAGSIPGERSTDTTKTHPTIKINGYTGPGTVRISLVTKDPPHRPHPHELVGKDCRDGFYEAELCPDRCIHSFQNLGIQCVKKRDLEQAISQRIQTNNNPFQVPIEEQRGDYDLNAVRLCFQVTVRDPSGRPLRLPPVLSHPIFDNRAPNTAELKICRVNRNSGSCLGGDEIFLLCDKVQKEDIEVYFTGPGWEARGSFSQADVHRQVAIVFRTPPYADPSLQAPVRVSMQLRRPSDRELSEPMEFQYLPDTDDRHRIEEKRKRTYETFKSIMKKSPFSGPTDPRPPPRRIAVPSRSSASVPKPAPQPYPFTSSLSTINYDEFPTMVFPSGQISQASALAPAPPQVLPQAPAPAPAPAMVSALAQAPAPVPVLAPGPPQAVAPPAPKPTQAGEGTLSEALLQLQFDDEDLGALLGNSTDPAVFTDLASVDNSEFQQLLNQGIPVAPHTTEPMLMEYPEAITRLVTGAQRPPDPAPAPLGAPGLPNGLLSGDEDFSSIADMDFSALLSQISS

Compound	EC50 (ATN-1)	Activity (K562 [1])	further results
C=C/[N+]([O-])=N/CCCCCCCCn1cc(-c2ccccc2)nn1	0.76 µg/mL (≈ 2.32 µM)	<20%	
C=C/[N+]([O-])=N/CCCCCCCCn1cc(CCC(C)C)nn1	0.72 µg/mL (≈ 2.24 µM)	<20%	
C=C/[N+]([O-])=N/CCCCCCCCn1cc([Si](C)(C)C)nn1	0.68 µg/mL (≈ 2.1 µM)	<20%	
C=C/[N+]([O-])=N/CCCCCCCCOS(C)(=O)=O	1.18 µg/mL (≈ 4.24 µM)	<20%	
C=C/[N+]([O-])=N/CCCCCCCCn1cc(CC(C)C)nn1	0.83 µg/mL (≈ 2.7 µM)	<20%	
CC1(C)CCC2=C(O1)c1ccccc1C(=O)C2=O			inhibition (Homo sapiens [2]): inactive
C=C/[N+]([O-])=N/CCCCCCCC(=O)CCCCC[C@H](C)CC	1.49 µg/mL (≈ 4.59 µM)	<20%	
C=C/[N+]([O-])=N/CCCCCCCC(=O)CCCCC[C@@H](C)CC	1.65 µg/mL (≈ 5.08 µM)	<20%	
C=C/[N+]([O-])=N/CCCCCCCCn1cc(-c2cc3ccccc3c3ccccc23)nn1	1.03 µg/mL (≈ 2.41 µM)	<20%	
C=C/[N+]([O-])=N/CCCCCCCCn1cc(CCCCC#N)nn1	0.97 µg/mL (≈ 2.92 µM)	<20%	
C=C/[N+]([O-])=N/CCc1ccccc1	1.03 µg/mL (≈ 5.84 µM)	<20%	inhibition (Homo sapiens [3]): Active
C=C/[N+]([O-])=N/CCCCCCCCn1cc(CN(Cc2cn(CCCCCCCC/N=[N+](\[O-])C=C)nn2)Cc2cn(CCCCCCCC/N=[N+](\[O-])C=C)nn2)nn1	0.23 µg/mL (≈ 0.285 µM)	<20%	inhibition (Homo sapiens [4]): Active
C=C/[N+]([O-])=N/CCCCCCCCn1cc(C(C)C)nn1	0.84 µg/mL (≈ 2.86 µM)	<20%	
C=C/[N+]([O-])=N/CCCCCCCCn1ccnn1	1.01 µg/mL (≈ 4.02 µM)	<20%	
C=C/[N+]([O-])=N/CCCCCCCC(=O)CCCCCCC(C)C	1.17 µg/mL (≈ 3.61 µM)	<20%	inhibition (Homo sapiens [5]): Active
C=C/[N+]([O-])=N/CCCCCCCC(=O)CCc1ccccc1	1.09 µg/mL (≈ 3.6 µM)	<20%	
C=C/[N+]([O-])=N/CCCCCCCCO	1.05 µg/mL (≈ 5.24 µM)	<20%	

Compound	EC50 (ATN-1)	Activity (K562 [1])	further results
C=C/[N+]([O-])=N/CCCCCCCCn1cc(CCCC)nn1	0.69 µg/mL (≈ 2.24 µM)	<20%	
C=C/[N+]([O-])=N/CCCCCCCC(=O)CCCCCC(C)C	1.82 µg/mL (≈ 5.86 µM)	<20%	inhibition (Homo sapiens [6]): Active; inhibition (Homo sapiens [7]): Active
C=C/[N+]([O-])=N/CCCCCCCCn1cc(C(C)(C)O)nn1	1.15 µg/mL (≈ 3.72 µM)	<20%	
C=C/[N+]([O-])=N/CCCCCCCC(=O)CCCCCC	1.29 µg/mL (≈ 4.57 µM)	<20%	
C=C/[N+]([O-])=N/CCCCCCCCn1cc(-c2ccc(N)cc2)nn1	0.76 µg/mL (≈ 2.22 µM)	<20%	
C=C/[N+]([O-])=N/CCCCCCCCO[Si](C)(C)C(C)(C)C	1.34 µg/mL (≈ 4.26 µM)	<20%	
C=C/[N+]([O-])=N/CCCCCCCCn1cc(-c2cccnc2)nn1	0.82 µg/mL (≈ 2.5 µM)	<20%	
C=C/[N+]([O-])=N/CCCCCCCCn1cc(CCCCO)nn1	0.71 µg/mL (≈ 2.2 µM)	<20%	inhibition (Homo sapiens [8]): Active
C=C/[N+]([O-])=N/CCCCCCCCn1nncc1CCC(C)C	0.85 µg/mL (≈ 2.64 µM)	<20%	
C#CC(=O)CCCCCCC/N=[N+](\[O-])C=C	0.03 µg/mL (≈ 0.135 µM)	<20%	inhibition (Homo sapiens [9]): Active; inhibition (Homo sapiens [7]): Active; inhibition (Homo sapiens [10]): Dose-dependent effect; Activity (Homo sapiens [11]): Active; Activity (U-266): Active; Activity (KM-H2): Active; Activity (L-540): Active; Activity (HeLa [12]): Active; Activity (K562 [13]): Active; Activity (Homo sapiens [14]): Active; Activity (Homo sapiens [15]): Active; inhibition (HeLa [16]): inactive; inhibition (HeLa [17]): Active; inhibition (HeLa [18]): inactive; inhibition (HeLa [19]): Active; inhibition [20]: Active; LD50 [21]: > 300 mg/kg; fold change (FC) [22]: 0.53
C=C/[N+]([O-])=N/CCCCCCCCn1cc(CCBr)nn1	0.97 µg/mL (≈ 2.71 µM)	<20%	
C=C/[N+]([O-])=N/CCCCCCCCn1cc(C(C)(C)C)nn1	0.69 µg/mL (≈ 2.24 µM)	<20%	inhibition (Homo sapiens [8]): Active
C=CC(C)(C)[C@@]12C=C(OC)C(=O)N3/C(=C/c4c[nH]cn4)C(=O)N[C@]31N(OC)c1ccccc12			inhibition (Homo sapiens [6]): inactive
C=C/[N+]([O-])=N/CCCCCCCC(C)=O	2.26 µg/mL (≈ 10.6 µM)	<20%	
C=C/[N+]([O-])=N/CCCCCCCCn1cc(C2(O)CCCCC2)nn1	1.31 µg/mL (≈ 3.75 µM)	<20%	
C=C/[N+]([O-])=N/CCCCCCCCn1cc(C2CC2)nn1	0.84 µg/mL (≈ 2.88 µM)	<20%	inhibition (Homo sapiens [8]): Active
